Reference: publication PMC5072737, “Heterologous Expression and Delivery of Biologically Active Exendin-4 by Lactobacillus paracasei L14” (PLoS ONE, 2016)

Columns and labels:
[1] = tested on: INS-1 cells; test: Staurosporine-induced apoptosis assay (Annexin V-PI, flow cytometry) in INS-1 cells; format: cell-based, rat; details: pretreatment with the agent (none for staurosporine alone), then staurosporine 1 μmol/l for 1 h, n = 3
Description: INS-1 cells were seeded in 96-well plates at a density of 2 × 10^4 cells per well. After 36 h incubation, the cells were grown to nearly 60% confluence and the medium was replaced with RPMI 1640–exendin-4 medium diluted 1:1 (v/v) with fresh RPMI 1640 containing 10% FBS (100 μl per well). Standard GLP-1 in RPMI 1640 medium (100 nmol/l) was used as a positive control and pure RPMI 1640 medium was used as a blank control. The mixture was incubated for 24 h. The PI3K (phosphatidylinositol-3-kinase) antagonist treatment cells were preincubated with wortmannin (100 nmol/l) for 15 min before the treatment. The number of viable cells was then analyzed by cell counting kit-8 (CCK-8) assay (Biyuntian Biotech Co. Ltd.) based on the formation of formazan with sensitive changes in OD450 values. […] The absorbance was read at 450 nm using a Multiskan MK3 ELISA plate reader to determine the in vitro cell proliferation. For apoptosis assays, staurosporine (1 μmol/l) was added in all treatment groups for 1 h, after which the cells were treated with Annexin V-PI (propidium iodide) cell apoptosis kit (Biyuntian Biotech Co. Ltd.) and apoptosis was measured by flow cytometry using a FACScan (Becton Dickinson).

[2] = tested on: Insulin (Ins1 and Ins2); test: qRT-PCR of insulin gene mRNA expression in INS-1 cells; format: cell-based, Rattus norvegicus; details: INS-1 cells treated 2 h, ΔΔCT, β-actin reference, n = 3
Description: (§1) INS-1 cells were seeded in 24-well plates at a density of 10^5 cells per well and grown to 100% confluence before the assay. The medium was changed 24 h before the assay. For the assay, cells were quickly rinsed in 1 ml Hank's balanced salt solution (HBSS) with 3 mM glucose followed by a 2 h preincubation with 1 ml of the same buffer. Then the buffer was discarded, RPMI 1640–exendin-4 medium diluted 1:1 (v/v) with fresh medium plus 5 mM glucose (600 μl per well) were added, and the mixture was incubated for 2 h. Standard GLP-1 (100 nmol/l) in RPMI 1640 medium was used as a positive control. […] At the end of the incubation, supernatant was collected and centrifuged for 10 min at 4000 × g at 4°C and insulin concentration was determined by ELISA kit (Millipore, St. Charles, MO, USA). The cells were collected to analyze mRNA expression of pancreatic duodenal homeobox-1 (PDX-1) and insulin gene (Insulin).
(§2) Total RNA was isolated from INS-1 cells using TRIzol Reagent (Invitrogen). Reverse transcription was performed using PrimeScript II first-strand cDNA synthesis kit (Takara, China), containing 1 μg of total RNA as the template. qRT-PCR was carried out using a SYBR Green assay kit (Tiangen). Specific primers for PDX-1, Insulin and the internal control gene β-actin (Actb) from Rattus norvegicus were designed with Primer Premier 5 software (Table 2). […]

[3] = tested on: INS-1 cells; test: Insulin secretion assay in INS-1 cells; format: cell-based, rat; details: 5 mM glucose
Description: as §1, with “buffer.” for “buffer. Then the buffer was discarded, RPMI 1640–exendin-4 medium diluted 1:1 (v/v) with fresh medium plus 5 mM glucose (600 μl per well) were added, and the mixture was incubated for 2 h. Standard GLP-1 (100 nmol/l) in RPMI 1640 medium was used as a positive control.”

[4] = native GLP-1, rapid inactivation by DPP-IV; cited from earlier work
Source text: Glucagon-like peptide-1 (GLP-1) is a potent incretin produced by L-cells of the distal ileum and colon in response to nutrient intake. It has a variety of antidiabetic effects that are mediated through β-cells in pancreatic islets and peripheral tissues. These include not only the promotion of glucose-dependent insulin secretion and inhibition of glucagon secretion, but also inhibition of food intake and body weight gain by delaying gastric emptying, increasing β-cell mass, and enhancing insulin sensitivity. However, despite its favorable antidiabet ...

[5] = tested on: PDX-1; test: qRT-PCR of PDX-1 mRNA expression in INS-1 cells; format: cell-based, Rattus norvegicus; details: INS-1 cells treated 2 h, ΔΔCT, β-actin reference, n = 3
Description: as §1, §2

[6] = tested on: Caco-2 cell monolayer; test: Transport of exendin-4 through Caco-2 monolayer; format: in vitro ADME; details: Caco-2 monolayer (~21 days, transwell 0.4 μm, 4.67 cm^2), apical to basolateral, s-DMEM without antibiotics, 37°C; first 3 h; ELISA; mean ± SD, n = 3
Description: Caco-2 cells (10–20 passages) were cultivated in 25-cm^2 flasks in DMEM supplemented with 10% (v/v) FBS, 1% (v/v) non-essential amino acids and 100 IU/ml penicillin–100μg/ml streptomycin (s-DMEM) at 37°C in an atmosphere of 5% CO2 and high humidity. Upon 80% confluence, cells were harvested using 0.25% trypsin EDTA and seeded on the polyester inserts (0.4 μm pore size, 24 mm diameter, 4.67 cm^2 grown surface, Costar, Corning, NY) in 6-well transwell plates at a density of 10^5 cell/cm^2 and incubated under normal cell culture conditions. The culture medium was replaced every other day for the first week and then every day until it was ready for transport studies when the monolayer became confluent and the transepithelial electrical resistance (TEER) reading reached a plateau (about 21 days). The TEER was monitored according to the method described by Hubatsch et al.
After the Caco-2 monolayer cell became confluent, the culture medium was washed twice by PBS (pH 7.4). […] Caco-2 cell viability was then measured by trypan blue assay at 0, 2, 4 and 6 h after the addition of L14/pMG76e-exendin-4 cells. […] At predetermined time points, 100 and 200 μl supernatant samples were withdrawn from the apical and basolateral sides, respectively, for exendin-4 quantification by ELISA and replaced with an equal volume of s-DMEM without the antibiotics. […]

Compound	Number of earliest-stage apoptotic cells, % of the control with no staurosporine [1] [%]	Insulin mRNA expression, fold of the blank control [2] [fold]	Insulin secretion, higher than the blank control (RPMI 1640 only) ([3]; 2 h, blank control 66.5 ± 0.5 ng/ml) [%]	Insulin secretion (insulin concentration in supernatant) ([3]; 2 h incubation, conditioned medium diluted 1:1 with fresh medium, GLP-1 at 100 nmol/l, insulin ELISA, mean ± SD, n = 3) [ng/mL]	Half-life in vivo [4] [min]	PDX-1 mRNA expression, fold of the blank control [5] [fold]	Exendin-4 transport rate through the cell monolayer [6] [pMol cm^-2 h^-1]
CN[C@@H]1C[C@H]2O[C@@](C)([C@@H]1OC)n1c3ccccc3c3c4c(c5c6ccccc6n2c5c31)C(=O)NC4 [staurosporine]	264.3						
Glucagon-like peptide-1 [GLP-1]	170	1.7	7	71.4 ± 0.7	1 to 2	1.9	
exendin-4 [standard exendin-4]							0.15 ± 0.013
